The source of these data is patent US7622275B2, “Aequorin as a growth marker in yeast” (Sanofi-Aventis Deutschland GmbH, priority 2001, dated 2009).

Data set [1] concerns S. cerevisiae. To be noted: 100 μM in SC Glucose-Trp.
Data set [2] relates to S. cerevisiae. Description: Aequorin growth marker signal upon toxic treatment (pYX132TPI-AEQ strain). The data set is classed as cell-based, Saccharomyces cerevisiae. The following applies: for Aequorin signal: 100 μM in SC Glucose-Trp; for Aequorin difference between toxic treatment and normal growth: 100 μM. The procedure:
As a yeast strain W303 MAT a, far::hisG, sst2::URA3^FOA, fus1::HIS3 was used.
The cells are distributed and/or grown in a white 96-well plate, in a volume of 100 μl.
30 minutes before the measurement time point, 10 μl of a 5 μM coelenterazine (Molecular Probes) solution is distributed in each well (to obtain a 0.5 μM final concentration) to load the cells.
The plate is then incubated at 30° C. for the last 30 minutes.
Aequorin detection is made in a luminometer with injecting system (Luminoskan, Labsystems). For each well, immediately after injection of a 10 mM CaCl2 solution (1 M CaCl2 diluted in lysis buffer Y-PER from Pierce), the luminescent signal is integrated for 15 seconds.
To avoid the intermediate step of loading, it is possible to introduce coelenterazine in the medium at the beginning of the assay: coelenterazine is added at a concentration of 0.5 μM.
(i.e. only half of the normal signal), and the starving cells give a signal of 64 r.l.u.

Data set [3] deals with S. cerevisiae.

Structures are written as SMILES. Like-named read-outs stand apart in the source and are kept apart here.

Take `O=C1Cc2cc(CCN3CCN(c4nsc5ccccc45)CC3)c(Cl)cc2N1` [Ziprasidone]: the β-Galactosidase signal with S. cerevisiae [1] (after 5 hours of treatment, normal growth 276, starving cells 64) turned out to be 116 r.l.u; with S. cerevisiae [1] (after 24 hours treatment, non treated cells 2275) it was 1923 r.l.u. Besides, the Aequorin signal with S. cerevisiae [2] (after 5 hours of treatment, normal growth 138, starving cells 16) is on record as 10 r.l.u; with S. cerevisiae [2] (after 24 hours treatment, normal growth 175), 50 r.l.u. The “Aequorin difference between toxic treatment and normal growth” value came out at 10 fold in the data set on S. cerevisiae [2] (after 5 hours of treatment) and 3.5 fold with S. cerevisiae [2] (after 24 hours treatment). Moreover, the “toxic effects on S. cerevisiae” value in the data set on S. cerevisiae [3] was “high toxic effects”. Besides, the OD630 in the data set with S. cerevisiae [3] (100 μM in SC Glucose-Trp, after 24 hours treatment, normal growth over 1) is reported as 0.5-0.7.
